Data: patent publication US8178688B2, “Benzamidine derivatives, process for the preparation thereof and pharmaceutical composition comprising the same” (Dong Wha Pharmaceutical Co., Ltd., priority 2004, dated 2012)
Marks after values point to notes of the source that are not given here.

Key:
[1] = tested on: rat models subjected to rib fracture; test: Effect of promoting fracture healing in rib fracture-induced rat model (callus volume, callus osteoid volume); format: in vivo, SD rats
Description: The benzamidine compounds were assayed for therapeutic effect on bone fracture in rat models subjected to rib fracture. Benzamidine derivates are dosed from 2 days after operation for 2 weeks, and the changes on the volume and histology of callus were observed.
A total of 54 SD rats (8 weeks old upon receipt, Jung Ang Lab. Animal Co., Korea) were used. While being housed at a density of three to a plastic cage, the experimental animals were kept in a breeding room under controlled temperature (20-25° C.) and humidity (30-35%). Under light-dark cycles of 12 hours, the rats were allowed to have free access to feedstuff and tap water.
200 mg of benzamidine compounds (Methansulfonic acid or Hydrochloride) were completely dissolved in 5 ml of sterilized distilled water. The benzamidine derivatives in the solutions was orally administered at doses of 200 mg per kg of body weight once a day for 2 weeks from day 2 of the surgery.
8th and 9th rib of each animal was exposed by general operation under ketamine HCl and xylazine HCl anesthesia, and the exposed ribs were crossly dissected using surgical scissors. After rib-fracture, surgical wounds were closed with general skin suture.
8th and 9th ribs of each animal were separated at sacrifice and then the long axis and short axis of callus were calculated as mm units. The volume of callus was calculated as following Equation 2. Callus volume(mm^3)=(a×b^2)/2 Equation 2 • a: long diameter of bony callus • b: short diameter of bony callus
The 8th rib including fracture sites of each rat was separated and fixed in 10% neutral buffered formalin, and then decalcified in decalcifying solution (24.4% formic acid, and 0.5N sodium hydroxide) for 5 days (mixed decalcifying solution was exchanges once a day for 5 days). After decalcification, the rib was embedded in paraffin, sectioned (3˜4 μm) and stained with hematoxylin-eosin or Masson's trichrome for composition of callus observation.
Osteloid volume (OV/callus) in callus regions of prepared histological specimens were detected as % levels using automated image analysis (analySIS Image Processing; SIS, Germany) under microscopy.

[2] = tested on: mouse models of ovalbumin-induced asthma; test: Therapeutic effect in mouse model of asthma induced with ovalbumin (lung weight, total leukocytes in blood and BALF); format: in vivo, C57BL/6 mice
Description: The benzamidine compounds were assated for therapeutic effect on allergic inflammation in mouse models of ovalbumin-induced asthma. Starting on the day of immunization the benzamidine compounds were dosed for 17 consecutive days. The experimental animals were re-exposed to ovalbumin 14 days after the sensitization and then sacrificed 3 days after the re-exposure. Changes in lung weight, cellular components of peripheral blood and bronchoalveolar lavage fluid, and lung histopathology were observed.
A total of 110 female C57BL/6 mice (7-week-old, SLC, Japan) were adapted to a laboratory environment for 6 days before being used in earnest experiments. While being housed at a densirt of five in a plastic cage, the experimental animals were breed in a breeding room with controlled temperature (20-25° C.) and humidity (30-35%). Under light-dark cycles of 12 hours, mice were allowed to have free access to feedstuff and tap water. While asthma was induced in 100 mice by ovalbumin, 10 mice were used as a non-treated group.
200 mg of benzamidine compounds (Methansulfonic acid or Hydrochloride) were completely dissolved in 5 ml of sterilized distilled water. The benzamidine compound in the solutions was orally administered at doses of 200 mg per kg of body weight once a day from the day of the sensitization with ovalbumin. The control group was administered with equal volumes of sterilized distilled water in the same manner.
A solution of 200 μg of ovalbumin (Grade VI; Sigma, st. Louis, Mo., USA) and 180 mg of aluminium hydroxide (Al(OH)3, dried powder gel; Aldrich, Milwaukee, USA) in 4 ml of physiological saline was allowed to stand at 4° C. overnight and was administered to the experimental animals (200 μl, abdominal injection) for sensitization. As for the non-treated group, a solution of only aluminium hydroxide in saline was injected. 15 days after sensitization, a 1.5% ovalbumin solution was sprayed in air using a nebulizer, followed by exposing the experimental animals to the spray for 10 min to induce asthma therein. The non-treated group was exposed only to saline in the same manner. All the experimental animals were sacrificed 3 days after the exposure.
On the final day of experiment, the lungs were separated form adjacent organs. The removed lungs were weight among individual animals, the relative weight of the lungs was calculated as a percentage of body weight using the following Equation 3. Relative weight of Lung(%)=(Absolute lung weight/Body weight)×100 Equation 3
On the final day of experiment, all the experimental animals were etherized and underwent laparotomy to expose the abdominal vena cava, from which 1 ml of blood was the taken. Using a hemocytometer, a blood sample was measured for total leukocyte counts in a ×10^3/1 mm^3 units.
On the final day of experiment, secretions present in bronchi and alveola were examined for cyrological constitution. After veing etherized, the experimental animals were operated to open the cervical region and the thorax. The jugular vein was allowed to bleed, followed by endotracheal intubation. 3 ml of phosphate buffered saline was injected twice through the tube and the thorax was massaged for 30 sec to obtain cell suspension from the lungs. Using a hemocytometer, a […] was measured for total leukocyte counts in a ×10^5/1 ml units.

[3] = tested on: osteoclast differentiation; test: Inhibitory effects on osteoclast differentiation (co-culture of bone marrow cells with osteoblast, TRAP staining); format: cell-based, mice; details: Mus musculus, Osteoclast, 168 h; 1 m; co-culture of bone marrow cells and osteoblast, 7 days, TRAP-positive osteoclasts versus controls; read-out: % inhibitory activity on osteoclastogenesis
How it was run: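 Percent inhibition versus control is based on microscope counts of TRAP-positive osteoclasts (3 or more nuclei) after 7 days of compound exposure. Cultures paired ddY mouse marrow cells with ICR calvarial osteoblasts, driven by dexamethasone 10^−7M plus vitamin D3 10^−8M, with medium and compound changed every 2–3 days.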

CNc1nc(-c2ccc(OCCCCCOc3ccc(C(=N)NO)cc3)cc2)c(CCCl)s1 [Example 115, N-hydroxy-4-(5-[4-(5-(2-chloroethyl)-2-methylamino-1,3-thiazol-4-yl)phenoxy]pentoxy)-benzamidine]
Changes on callus volume (mm^3) ([1]; 200 mg/kg oral once a day for 2 weeks from day 2 of surgery, 8th and 9th ribs, vehicle control 37.22 ± 8.23): 24.06 ± 9.64* mm^3
Changes on callus osteoid volume (OV/callus, %) ([1]; 200 mg/kg oral once a day for 2 weeks, 8th rib, vehicle control 35.88 ± 5.06): 41.94 ± 6.33%
Changes on the lung weight, Absolute ([2]; 200 mg/kg oral once a day from sensitization, vehicle control 0.134 ± 0.012, sham 0.110 ± 0.009): 0.114 ± 0.009 g
Changes on the lung weight, Relative (%) ([2]; 200 mg/kg oral once a day, % of body weight, vehicle control 0.780 ± 0.103, sham 0.694 ± 0.049): 0.705 ± 0.046%
inhibition at 1 µM [3]: 96%
